Results taken from US10765114B2, “4-amino-6-(pyridyl and 2-substitutedphenyl)-picolinates and 6-amino-2-(pyridyl and 2-substitutedphenyl)-pyrimidine-4-carboxylates and their use as herbicides” (Dow AgroSciences LLC, priority 2013, dated 2020).

system: Key Broadleaf Weed and Crop Species; assay: Post-Emergent Test II (Table 5); format: in vivo; conditions: Abutilon theophrasti, post-emergence, 336 h, ABUTH: velvetleaf (Abutilon theophrasti), application rate 70 (kg ai/ha; footnote: g ai/ha), read-out: Visual Growth Reduction (%) 14 Days After Application ABUTH
How it was run: (§1)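 Plants grown in a greenhouse (~15 h photoperiod, 23-29° C day) to first or second true leaf stage were sprayed post-emergence at 187 L/ha with compound in acetone/DMSO-based aqueous spray containing crop oil concentrate and surfactant, applied at a high rate plus ½× to 1/16× serial rates. Injury was scored visually 14 days later, 0-100% versus untreated plants.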

SMILES	pest or weed control at 70 g/ha [%]
Nc1c(F)c(-c2ccc(Br)nc2)nc(C(=O)O)c1Cl [Compound 8, 4-amino-6′-bromo-5-chloro-3-fluoro-[2,3′-bipyridine]-6-carboxylic acid]	85 to 94

same assay, conditions: Abutilon theophrasti, post-emergence, 336 h, ABUTH: velvetleaf (Abutilon theophrasti), application rate 140 (kg ai/ha; footnote: g ai/ha), read-out: Visual Growth Reduction (%) 14 Days After Application ABUTH

SMILES	pest or weed control at 140 g/ha [%]
Nc1c(F)c(-c2ccc(Br)nc2)nc(C(=O)O)c1Cl [Compound 8, 4-amino-6′-bromo-5-chloro-3-fluoro-[2,3′-bipyridine]-6-carboxylic acid]	95 to 100

same assay, conditions: Amaranthus retroflexus, post-emergence, 336 h, AMARE: redroot pigweed (Amaranthus retroflexus), application rate 70 (kg ai/ha; footnote: g ai/ha), read-out: Visual Growth Reduction (%) 14 Days After Application AMARE

SMILES	pest or weed control at 70 g/ha [%]
Nc1c(F)c(-c2ccc(Br)nc2)nc(C(=O)O)c1Cl [Compound 8, 4-amino-6′-bromo-5-chloro-3-fluoro-[2,3′-bipyridine]-6-carboxylic acid]	95 to 100

same assay, conditions: Amaranthus retroflexus, post-emergence, 336 h, AMARE: redroot pigweed (Amaranthus retroflexus), application rate 140 (kg ai/ha; footnote: g ai/ha), read-out: Visual Growth Reduction (%) 14 Days After Application AMARE

SMILES	pest or weed control at 140 g/ha [%]
Nc1c(F)c(-c2ccc(Br)nc2)nc(C(=O)O)c1Cl [Compound 8, 4-amino-6′-bromo-5-chloro-3-fluoro-[2,3′-bipyridine]-6-carboxylic acid]	95 to 100

same assay, conditions: Brassica napus, post-emergence, 336 h, BRSSS: oilseed rape, canola (Brassica napus), application rate 70 (kg ai/ha; footnote: g ai/ha), read-out: Visual Growth Reduction (%) 14 Days After Application BRSSS

SMILES	pest or weed control at 70 g/ha [%]
Nc1c(F)c(-c2ccc(Br)nc2)nc(C(=O)O)c1Cl [Compound 8, 4-amino-6′-bromo-5-chloro-3-fluoro-[2,3′-bipyridine]-6-carboxylic acid]	95 to 100

same assay, conditions: Brassica napus, post-emergence, 336 h, BRSSS: oilseed rape, canola (Brassica napus), application rate 140 (kg ai/ha; footnote: g ai/ha), read-out: Visual Growth Reduction (%) 14 Days After Application BRSSS

SMILES	pest or weed control at 140 g/ha [%]
Nc1c(F)c(-c2ccc(Br)nc2)nc(C(=O)O)c1Cl [Compound 8, 4-amino-6′-bromo-5-chloro-3-fluoro-[2,3′-bipyridine]-6-carboxylic acid]	95 to 100

same assay, conditions: Chenopodium album, post-emergence, 336 h, CHEAL: lambsquarters (Chenopodium album), application rate 70 (kg ai/ha; footnote: g ai/ha), read-out: Visual Growth Reduction (%) 14 Days After Application CHEAL

SMILES	pest or weed control at 70 g/ha [%]
Nc1c(F)c(-c2ccc(Br)nc2)nc(C(=O)O)c1Cl [Compound 8, 4-amino-6′-bromo-5-chloro-3-fluoro-[2,3′-bipyridine]-6-carboxylic acid]	95 to 100

same assay, conditions: Chenopodium album, post-emergence, 336 h, CHEAL: lambsquarters (Chenopodium album), application rate 140 (kg ai/ha; footnote: g ai/ha), read-out: Visual Growth Reduction (%) 14 Days After Application CHEAL

SMILES	pest or weed control at 140 g/ha [%]
Nc1c(F)c(-c2ccc(Br)nc2)nc(C(=O)O)c1Cl [Compound 8, 4-amino-6′-bromo-5-chloro-3-fluoro-[2,3′-bipyridine]-6-carboxylic acid]	95 to 100

same assay, conditions: Euphorbia heterophylla, post-emergence, 336 h, EPHHL: wild poinsettia (Euphorbia heterophylla), application rate 70 (kg ai/ha; footnote: g ai/ha), read-out: Visual Growth Reduction (%) 14 Days After Application EPHHL

SMILES	pest or weed control at 70 g/ha [%]
Nc1c(F)c(-c2ccc(Br)nc2)nc(C(=O)O)c1Cl [Compound 8, 4-amino-6′-bromo-5-chloro-3-fluoro-[2,3′-bipyridine]-6-carboxylic acid]	75 to 84

same assay, conditions: Euphorbia heterophylla, post-emergence, 336 h, EPHHL: wild poinsettia (Euphorbia heterophylla), application rate 140 (kg ai/ha; footnote: g ai/ha), read-out: Visual Growth Reduction (%) 14 Days After Application EPHHL

SMILES	pest or weed control at 140 g/ha [%]
Nc1c(F)c(-c2ccc(Br)nc2)nc(C(=O)O)c1Cl [Compound 8, 4-amino-6′-bromo-5-chloro-3-fluoro-[2,3′-bipyridine]-6-carboxylic acid]	95 to 100

same assay, conditions: Helianthus annuus, post-emergence, 336 h, HELAN: sunflower (Helianthus annuus), application rate 70 (kg ai/ha; footnote: g ai/ha), read-out: Visual Growth Reduction (%) 14 Days After Application HELAN

SMILES	pest or weed control at 70 g/ha [%]
Nc1c(F)c(-c2ccc(Br)nc2)nc(C(=O)O)c1Cl [Compound 8, 4-amino-6′-bromo-5-chloro-3-fluoro-[2,3′-bipyridine]-6-carboxylic acid]	95 to 100

same assay, conditions: Helianthus annuus, post-emergence, 336 h, HELAN: sunflower (Helianthus annuus), application rate 140 (kg ai/ha; footnote: g ai/ha), read-out: Visual Growth Reduction (%) 14 Days After Application HELAN

SMILES	pest or weed control at 140 g/ha [%]
Nc1c(F)c(-c2ccc(Br)nc2)nc(C(=O)O)c1Cl [Compound 8, 4-amino-6′-bromo-5-chloro-3-fluoro-[2,3′-bipyridine]-6-carboxylic acid]	95 to 100

same assay, conditions: Viola tricolor, post-emergence, 336 h, VIOTR: wild pansy (Viola tricolor), application rate 70 (kg ai/ha; footnote: g ai/ha), read-out: Visual Growth Reduction (%) 14 Days After Application VIOTR

SMILES	pest or weed control at 70 g/ha [%]
Nc1c(F)c(-c2ccc(Br)nc2)nc(C(=O)O)c1Cl [Compound 8, 4-amino-6′-bromo-5-chloro-3-fluoro-[2,3′-bipyridine]-6-carboxylic acid]	95 to 100

same assay, conditions: Viola tricolor, post-emergence, 336 h, VIOTR: wild pansy (Viola tricolor), application rate 140 (kg ai/ha; footnote: g ai/ha), read-out: Visual Growth Reduction (%) 14 Days After Application VIOTR

SMILES	pest or weed control at 140 g/ha [%]
Nc1c(F)c(-c2ccc(Br)nc2)nc(C(=O)O)c1Cl [Compound 8, 4-amino-6′-bromo-5-chloro-3-fluoro-[2,3′-bipyridine]-6-carboxylic acid]	95 to 100

system: Key Grass and Sedge Weeds as well as Grass Crops; assay: Post-Emergent Test II (Table 6); format: in vivo; conditions: post-emergence, 336 h, CYPSS, 70 g ai/ha, 14 days after application, read-out: Visual Growth Reduction (%) 14 Days After Application CYPSS
How it was run: as §1

SMILES	pest or weed control at 70 g/ha [%]
Nc1c(F)c(-c2ccc(Br)nc2)nc(C(=O)O)c1Cl [Compound 8, 4-amino-6′-bromo-5-chloro-3-fluoro-[2,3′-bipyridine]-6-carboxylic acid]	95 to 100

same assay, conditions: post-emergence, 336 h, CYPSS, 140 g ai/ha, 14 days after application, read-out: Visual Growth Reduction (%) 14 Days After Application CYPSS

SMILES	pest or weed control at 140 g/ha [%]
Nc1c(F)c(-c2ccc(Br)nc2)nc(C(=O)O)c1Cl [Compound 8, 4-amino-6′-bromo-5-chloro-3-fluoro-[2,3′-bipyridine]-6-carboxylic acid]	95 to 100

same assay, conditions: post-emergence, 336 h, DIGSA: crabgrass (Digitaria sanguinalis), 70 g ai/ha, 14 days after application, read-out: Visual Growth Reduction (%) 14 Days After Application DIGSA

SMILES	pest or weed control at 70 g/ha [%]
Nc1c(F)c(-c2ccc(Br)nc2)nc(C(=O)O)c1Cl [Compound 8, 4-amino-6′-bromo-5-chloro-3-fluoro-[2,3′-bipyridine]-6-carboxylic acid]	85 to 94

same assay, conditions: post-emergence, 336 h, DIGSA: crabgrass (Digitaria sanguinalis), 140 g ai/ha, 14 days after application, read-out: Visual Growth Reduction (%) 14 Days After Application DIGSA

SMILES	pest or weed control at 140 g/ha [%]
Nc1c(F)c(-c2ccc(Br)nc2)nc(C(=O)O)c1Cl [Compound 8, 4-amino-6′-bromo-5-chloro-3-fluoro-[2,3′-bipyridine]-6-carboxylic acid]	95 to 100

same assay, conditions: post-emergence, 336 h, ECHSS, 70 g ai/ha, 14 days after application, read-out: Visual Growth Reduction (%) 14 Days After Application ECHSS

SMILES	pest or weed control at 70 g/ha [%]
Nc1c(F)c(-c2ccc(Br)nc2)nc(C(=O)O)c1Cl [Compound 8, 4-amino-6′-bromo-5-chloro-3-fluoro-[2,3′-bipyridine]-6-carboxylic acid]	85 to 94

same assay, conditions: post-emergence, 336 h, ECHSS, 140 g ai/ha, 14 days after application, read-out: Visual Growth Reduction (%) 14 Days After Application ECHSS

SMILES	pest or weed control at 140 g/ha [%]
Nc1c(F)c(-c2ccc(Br)nc2)nc(C(=O)O)c1Cl [Compound 8, 4-amino-6′-bromo-5-chloro-3-fluoro-[2,3′-bipyridine]-6-carboxylic acid]	95 to 100

same assay, conditions: post-emergence, 336 h, ORYSS (crop), 70 g ai/ha, 14 days after application, read-out: Visual Growth Reduction (%) 14 Days After Application ORYSS

SMILES	pest or weed control at 70 g/ha [%]
Nc1c(F)c(-c2ccc(Br)nc2)nc(C(=O)O)c1Cl [Compound 8, 4-amino-6′-bromo-5-chloro-3-fluoro-[2,3′-bipyridine]-6-carboxylic acid]	60 to 74

same assay, conditions: post-emergence, 336 h, ORYSS (crop), 140 g ai/ha, 14 days after application, read-out: Visual Growth Reduction (%) 14 Days After Application ORYSS

SMILES	pest or weed control at 140 g/ha [%]
Nc1c(F)c(-c2ccc(Br)nc2)nc(C(=O)O)c1Cl [Compound 8, 4-amino-6′-bromo-5-chloro-3-fluoro-[2,3′-bipyridine]-6-carboxylic acid]	75 to 84

same assay, conditions: post-emergence, 336 h, SETFA: giant foxtail (Setaria faberi), 70 g ai/ha, 14 days after application, read-out: Visual Growth Reduction (%) 14 Days After Application SETFA

SMILES	pest or weed control at 70 g/ha [%]
Nc1c(F)c(-c2ccc(Br)nc2)nc(C(=O)O)c1Cl [Compound 8, 4-amino-6′-bromo-5-chloro-3-fluoro-[2,3′-bipyridine]-6-carboxylic acid]	85 to 94

same assay, conditions: post-emergence, 336 h, SETFA: giant foxtail (Setaria faberi), 140 g ai/ha, 14 days after application, read-out: Visual Growth Reduction (%) 14 Days After Application SETFA

SMILES	pest or weed control at 140 g/ha [%]
Nc1c(F)c(-c2ccc(Br)nc2)nc(C(=O)O)c1Cl [Compound 8, 4-amino-6′-bromo-5-chloro-3-fluoro-[2,3′-bipyridine]-6-carboxylic acid]	85 to 94

same assay, conditions: post-emergence, 336 h, SORVU: grain sorghum (Sorghum vulgare), 70 g ai/ha, 14 days after application, read-out: Visual Growth Reduction (%) 14 Days After Application SORVU

SMILES	pest or weed control at 70 g/ha [%]
Nc1c(F)c(-c2ccc(Br)nc2)nc(C(=O)O)c1Cl [Compound 8, 4-amino-6′-bromo-5-chloro-3-fluoro-[2,3′-bipyridine]-6-carboxylic acid]	85 to 94

same assay, conditions: post-emergence, 336 h, SORVU: grain sorghum (Sorghum vulgare), 140 g ai/ha, 14 days after application, read-out: Visual Growth Reduction (%) 14 Days After Application SORVU

SMILES	pest or weed control at 140 g/ha [%]
Nc1c(F)c(-c2ccc(Br)nc2)nc(C(=O)O)c1Cl [Compound 8, 4-amino-6′-bromo-5-chloro-3-fluoro-[2,3′-bipyridine]-6-carboxylic acid]	95 to 100

same assay, conditions: post-emergence, 336 h, TRZSS (crop), 70 g ai/ha, 14 days after application, read-out: Visual Growth Reduction (%) 14 Days After Application TRZSS

SMILES	pest or weed control at 70 g/ha [%]
Nc1c(F)c(-c2ccc(Br)nc2)nc(C(=O)O)c1Cl [Compound 8, 4-amino-6′-bromo-5-chloro-3-fluoro-[2,3′-bipyridine]-6-carboxylic acid]	85 to 94

same assay, conditions: post-emergence, 336 h, TRZSS (crop), 140 g ai/ha, 14 days after application, read-out: Visual Growth Reduction (%) 14 Days After Application TRZSS

SMILES	pest or weed control at 140 g/ha [%]
Nc1c(F)c(-c2ccc(Br)nc2)nc(C(=O)O)c1Cl [Compound 8, 4-amino-6′-bromo-5-chloro-3-fluoro-[2,3′-bipyridine]-6-carboxylic acid]	95 to 100

same assay, conditions: post-emergence, 336 h, ZEAMX: maize, corn (Zea mays), 70 g ai/ha, 14 days after application, read-out: Visual Growth Reduction (%) 14 Days After Application ZEAMX

SMILES	pest or weed control at 70 g/ha [%]
Nc1c(F)c(-c2ccc(Br)nc2)nc(C(=O)O)c1Cl [Compound 8, 4-amino-6′-bromo-5-chloro-3-fluoro-[2,3′-bipyridine]-6-carboxylic acid]	85 to 94

same assay, conditions: post-emergence, 336 h, ZEAMX: maize, corn (Zea mays), 140 g ai/ha, 14 days after application, read-out: Visual Growth Reduction (%) 14 Days After Application ZEAMX

SMILES	pest or weed control at 140 g/ha [%]
Nc1c(F)c(-c2ccc(Br)nc2)nc(C(=O)O)c1Cl [Compound 8, 4-amino-6′-bromo-5-chloro-3-fluoro-[2,3′-bipyridine]-6-carboxylic acid]	95 to 100
